Measurements reported in PubChem BioAssay AID328 (DTP/NCI, 2004).
Values joined by “and” are separate entries in the source; they are usually repeats but may differ in a detail not shown here. Identical values can stand only once. Inconclusive results and toxic doses are left out.

Tested on: BDF1 mice, P388 leukemia ip, median survival T/C
Experiment: NCI In Vivo Anticancer Drug Screen. Data for tumor model P388 Leukemia (intraperitoneal) in B6D2F1 (BDF1) mice
Conditions: endpoint: median survival time, higher = longer survival
In short: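 Mice carrying the transplantable tumour receive compound or vehicle. Survival is followed in each arm, and the treated measure is divided by the vehicle measure.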

[1] = dose: 100.0 mg/kg/injection, schedule: Q04DX003 (ip), vehicle: saline with Tween-80
[2] = dose: 200.0 mg/kg/injection, schedule: Q04DX003 (ip), vehicle: saline with Tween-80
[3] = dose: 400.0 mg/kg/injection, schedule: Q04DX003 (ip), vehicle: saline with Tween-80
[4] = dose: 100.0 mg/kg/injection, schedule: Q01DX009 (ip), vehicle: saline with Tween-80
[5] = dose: 200.0 mg/kg/injection, schedule: Q01DX009 (ip), vehicle: saline with Tween-80

## C1CC[N-]CC1.[Cl][Pt+2][Cl].[NH-]C1CC1
dose: 1.5 mg/kg/injection, schedule: Q01DX005 (ip), vehicle: distilled water + Tween-80
  T/C: 153 % of control
dose: 1.5 mg/kg/injection, schedule: Q01DX005 (ip), vehicle: water
  T/C: 150 % of control
dose: 3.0 mg/kg/injection, schedule: Q01DX005 (ip), vehicle: water
  T/C: 164 % of control
dose: 6.0 mg/kg/injection, schedule: Q01DX005 (ip), vehicle: distilled water + Tween-80
  T/C: 157 % of control
dose: 6.0 mg/kg/injection, schedule: Q01DX005 (ip), vehicle: water
  T/C: 185 % of control
dose: 12.0 mg/kg/injection, schedule: Q01DX005 (ip), vehicle: distilled water + Tween-80
  T/C: 176 % of control
dose: 12.0 mg/kg/injection, schedule: Q01DX005 (ip), vehicle: water
  T/C: 192 % of control

## CNC(=N)c1ccc(NC(=N)c2ccc(NC(=N)c3ccc(NC(=O)Nc4ccc(C(=N)NC)cc4)cc3)cc2)cc1
dose: 1.1 mg/kg/injection, schedule: Q04DX003 (ip), vehicle: saline
  T/C: 122 % of control
dose: 2.4 mg/kg/injection, schedule: Q01DX009 (ip), vehicle: saline
  T/C: 170 % of control
dose: 3.6 mg/kg/injection, schedule: Q01DX009 (ip), vehicle: saline
  T/C: 187 % of control
dose: 5.0 mg/kg/injection, schedule: Q01DX009 (ip), vehicle: saline
  T/C: 154 % of control and 157 % of control
dose: 5.3 mg/kg/injection, schedule: Q01DX009 (ip), vehicle: saline
  T/C: 195 % of control
dose: 5.3 mg/kg/injection, schedule: Q04DX003 (ip), vehicle: saline
  T/C: 154 % of control
dose: 6.25 mg/kg/injection, schedule: Q01DX009 (ip), vehicle: saline
  T/C: 161 % of control
dose: 8.0 mg/kg/injection, schedule: Q01DX009 (ip), vehicle: saline
  T/C: 165 % of control
dose: 12.0 mg/kg/injection, schedule: Q01DX009 (ip), vehicle: saline
  T/C: 188 % of control
dose: 12.0 mg/kg/injection, schedule: Q04DX003 (ip), vehicle: saline
  T/C: 154 % of control
dose: 12.5 mg/kg/injection, schedule: Q01DX009 (ip), vehicle: saline
  T/C: 230 % of control
dose: 18.0 mg/kg/injection, schedule: Q01DX009 (ip), vehicle: saline
  T/C: 230 % of control
dose: 18.0 mg/kg/injection, schedule: Q04DX003 (ip), vehicle: saline
  T/C: 187 % of control
dose: 25.0 mg/kg/injection, schedule: Q04DX003 (ip), vehicle: saline
  T/C: 250 % of control

## CS/C(N)=N\S(=O)(=O)c1ccc(NC(C)=O)cc1
[1]
  T/C: 95 % of control
[2]
  T/C: 119 % of control
[3]
  T/C: 100 % of control

## Nc1nc(N)c(N=O)c(Nc2ccc(Br)cc2)n1
[4]
  T/C: 104 % of control
[5]
  T/C: 113 % of control
dose: 400.0 mg/kg/injection, schedule: Q01DX009 (ip), vehicle: saline with Tween-80
  T/C: 95 % of control

## CC(=O)n1cc(C2CC(=O)OC3=C2CC(=O)C(C)(C)C3)c2ccccc21 (stereo not drawn)
dose: 50.0 mg/kg/injection, schedule: Q04DX003 (ip), vehicle: saline with Tween-80
  T/C: 100 % of control
[1]
  T/C: 88 % of control and 95 % of control
[2]
  T/C: 94 % of control and 95 % of control
[3]
  T/C: 94 % of control and 96 % of control

## O=C(O)C(CSC(c1ccccc1)(c1ccccc1)c1ccccc1)N=Cc1ccccc1O (stereo not drawn)
dose: 50.0 mg/kg/injection, schedule: Q01DX009 (ip), vehicle: saline with Tween-80
  T/C: 159 % of control
dose: 66.0 mg/kg/injection, schedule: Q04DX003 (ip), vehicle: saline with Tween-80
  T/C: 104 % of control
[4]
  T/C: 186 % of control
[1]
  T/C: 190 % of control
dose: 150.0 mg/kg/injection, schedule: Q04DX003 (ip), vehicle: saline with Tween-80
  T/C: 177 % of control
[5]
  T/C: 272 % of control

## C(=N\Nc1nc2ccccc2o1)/c1ccncc1
dose: 100.0 mg/kg/injection, schedule: Q01DX009 (ip), vehicle: Klucel (hydroxypropylcellulose) (HPC)
  T/C: 100 % of control and 104 % of control
dose: 100.0 mg/kg/injection, schedule: Q04DX003 (ip), vehicle: Klucel (hydroxypropylcellulose) (HPC)
  T/C: 100 % of control
dose: 200.0 mg/kg/injection, schedule: Q01DX009 (ip), vehicle: Klucel (hydroxypropylcellulose) (HPC)
  T/C: 109 % of control
dose: 200.0 mg/kg/injection, schedule: Q04DX003 (ip), vehicle: Klucel (hydroxypropylcellulose) (HPC)
  T/C: 95 % of control
dose: 400.0 mg/kg/injection, schedule: Q01DX009 (ip), vehicle: Klucel (hydroxypropylcellulose) (HPC)
  T/C: 105 % of control and 109 % of control
dose: 400.0 mg/kg/injection, schedule: Q04DX003 (ip), vehicle: Klucel (hydroxypropylcellulose) (HPC)
  T/C: 100 % of control
